Data set [1] can be described thus: Cytotoxicity against human KB-3-1 cells measured after 72 hrs by MTT assay. It is filed as functional, cell-based. As to conditions: KB 3-1, 72 h. On the technique in general: Tetrazolium dyes change colour on reduction, which living cells bring about.
Data set [2] in a line: Cytotoxicity against human KBV1 cells expressing P-glycoprotein measured after 72 hrs by MTT assay. It is filed as functional, cell-based. As to conditions: KB-V1, 72 h.
Data set [3] in a line: Antiproliferative activity against mouse L1210 cells. It is filed as functional, cell-based.
A short description of data set [4]: Cytotoxicity against human HepG2 cells measured after 72 hrs by SRB assay. As to conditions: HepG2, 72 h. It is filed as functional, cell-based. For orientation: Sulforhodamine B stains cellular protein and so reports cell mass.
The target of data set [5] is T1, Hepatocyte growth factor receptor (Homo sapiens, UniProt P08581). Put plainly: Inhibition of GST-tagged c-Met (unknown origin) assessed as phosphotyrosine levels preincubated foe 15 mins followed by addition of poly(glutamic acid-tyrosine (4:1)) as substrate and ATP by ELISA. A general note: ELISA stands for enzyme-linked immunosorbent assay.
T1 sequence (P08581 whole entry): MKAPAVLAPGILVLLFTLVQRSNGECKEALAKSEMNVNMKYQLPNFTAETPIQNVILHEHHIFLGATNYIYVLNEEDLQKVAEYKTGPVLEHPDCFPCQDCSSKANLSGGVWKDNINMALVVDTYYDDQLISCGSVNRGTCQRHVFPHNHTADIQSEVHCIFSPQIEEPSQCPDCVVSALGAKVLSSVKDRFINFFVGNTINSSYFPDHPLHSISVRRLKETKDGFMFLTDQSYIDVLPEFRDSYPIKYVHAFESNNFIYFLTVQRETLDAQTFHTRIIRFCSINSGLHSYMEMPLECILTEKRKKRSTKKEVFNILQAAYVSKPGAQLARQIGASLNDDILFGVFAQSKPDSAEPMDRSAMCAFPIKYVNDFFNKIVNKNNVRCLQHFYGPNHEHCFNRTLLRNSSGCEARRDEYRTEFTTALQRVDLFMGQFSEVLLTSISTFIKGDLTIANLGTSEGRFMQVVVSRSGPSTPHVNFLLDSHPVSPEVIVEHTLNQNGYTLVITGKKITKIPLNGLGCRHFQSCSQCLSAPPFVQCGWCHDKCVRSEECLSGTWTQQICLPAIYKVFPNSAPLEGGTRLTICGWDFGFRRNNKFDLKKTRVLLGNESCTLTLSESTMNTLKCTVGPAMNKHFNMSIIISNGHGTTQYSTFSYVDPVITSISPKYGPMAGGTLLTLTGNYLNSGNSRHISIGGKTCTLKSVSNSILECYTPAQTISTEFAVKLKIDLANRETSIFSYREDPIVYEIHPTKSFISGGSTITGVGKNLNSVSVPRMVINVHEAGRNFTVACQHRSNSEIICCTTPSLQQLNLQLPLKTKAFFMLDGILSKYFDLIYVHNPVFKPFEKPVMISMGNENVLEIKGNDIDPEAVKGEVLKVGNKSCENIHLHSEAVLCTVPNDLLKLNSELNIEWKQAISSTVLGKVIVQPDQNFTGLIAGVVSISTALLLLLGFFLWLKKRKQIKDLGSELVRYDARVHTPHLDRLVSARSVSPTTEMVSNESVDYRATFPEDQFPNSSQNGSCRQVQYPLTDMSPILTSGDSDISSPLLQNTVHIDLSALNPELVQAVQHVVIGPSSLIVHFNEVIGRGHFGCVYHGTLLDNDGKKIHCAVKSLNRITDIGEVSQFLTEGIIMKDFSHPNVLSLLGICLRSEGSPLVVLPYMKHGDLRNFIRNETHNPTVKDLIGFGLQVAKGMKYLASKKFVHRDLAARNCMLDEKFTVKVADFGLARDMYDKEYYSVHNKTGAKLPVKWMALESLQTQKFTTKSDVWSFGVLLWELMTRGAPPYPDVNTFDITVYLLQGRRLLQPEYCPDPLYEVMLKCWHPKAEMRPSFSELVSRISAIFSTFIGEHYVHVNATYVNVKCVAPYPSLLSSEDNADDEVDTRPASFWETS
Data set [6] can be described thus: Antiproliferative activity against human MCF7 cells measured after 48 hrs by MTT assay. It is filed as functional, cell-based. As to conditions: MCF7, 48 h.
A short description of data set [7]: Anticancer activity against human HeLa cells measured after 48 hrs by MTT assay. It is filed as functional, cell-based.
A short description of data set [8]: Anticancer activity against human IMR32 cells measured after 48 hrs by MTT assay. It is filed as functional, cell-based. As to conditions: IMR-32, 48 h.
Data set [9] in a line: Growth inhibition of human SR cells measured after 48 hrs by SRB assay. It is filed as functional.
Data set [10] is described as follows: Growth inhibition of human MDA-MB-468 cells measured after 48 hrs by SRB assay. It is filed as functional.
Data set [11] deals with Epidermal growth factor receptor (Homo sapiens) (UniProt P00533). Briefly: Inhibition of EGFR (unknown origin) at 100 uM relative to control.
Sequence of Epidermal growth factor receptor (Homo sapiens) (P00533 whole entry): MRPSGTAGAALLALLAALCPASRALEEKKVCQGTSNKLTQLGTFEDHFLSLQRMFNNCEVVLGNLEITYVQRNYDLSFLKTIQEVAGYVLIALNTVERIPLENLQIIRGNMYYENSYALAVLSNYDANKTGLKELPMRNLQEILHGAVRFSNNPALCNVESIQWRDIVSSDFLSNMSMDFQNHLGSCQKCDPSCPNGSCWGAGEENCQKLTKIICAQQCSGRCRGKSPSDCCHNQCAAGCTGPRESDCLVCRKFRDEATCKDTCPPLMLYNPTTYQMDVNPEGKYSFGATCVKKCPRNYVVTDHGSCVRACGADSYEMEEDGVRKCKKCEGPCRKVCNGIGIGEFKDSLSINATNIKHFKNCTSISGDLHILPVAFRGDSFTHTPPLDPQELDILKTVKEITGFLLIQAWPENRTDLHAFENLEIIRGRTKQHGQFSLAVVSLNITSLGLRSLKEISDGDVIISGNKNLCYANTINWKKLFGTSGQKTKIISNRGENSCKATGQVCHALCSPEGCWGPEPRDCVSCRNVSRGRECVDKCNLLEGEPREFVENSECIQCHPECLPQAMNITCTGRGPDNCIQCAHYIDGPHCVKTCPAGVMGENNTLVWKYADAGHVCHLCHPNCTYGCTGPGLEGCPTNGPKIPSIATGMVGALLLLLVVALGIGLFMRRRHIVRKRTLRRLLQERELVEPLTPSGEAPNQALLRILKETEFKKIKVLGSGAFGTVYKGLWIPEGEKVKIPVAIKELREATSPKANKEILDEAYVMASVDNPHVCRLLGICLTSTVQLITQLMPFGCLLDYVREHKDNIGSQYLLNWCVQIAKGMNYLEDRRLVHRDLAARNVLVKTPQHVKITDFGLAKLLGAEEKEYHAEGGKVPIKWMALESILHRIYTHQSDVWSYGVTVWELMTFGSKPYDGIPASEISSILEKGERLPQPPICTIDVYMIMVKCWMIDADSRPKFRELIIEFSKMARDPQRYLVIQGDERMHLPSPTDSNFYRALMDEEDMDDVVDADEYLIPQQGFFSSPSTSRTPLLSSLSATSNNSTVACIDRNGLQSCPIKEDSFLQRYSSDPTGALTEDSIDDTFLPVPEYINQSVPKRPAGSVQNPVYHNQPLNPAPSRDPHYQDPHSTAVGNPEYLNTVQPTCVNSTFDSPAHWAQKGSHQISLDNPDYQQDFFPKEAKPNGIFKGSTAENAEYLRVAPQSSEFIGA
Data set [12] in a line: Growth inhibition of human NCI-H522 cells measured after 48 hrs by SRB assay. It is filed as functional.
The subject of the next data set is HeLa. Briefly: Inhibition of HDAC in human HeLa cell nuclear extract at 30 uM using Fluor de Lys as substrate measured after 10 to 15 mins by fluorimetric assay. It is filed as cell-free.
For data set [13], the target named is T1, Hepatocyte growth factor receptor. Briefly: Inhibition of C-Met in human S114 cells assessed as inhibition of HGF-stimulated autophosphorylation preincubated for 60 mins followed by HGF-stimulation measured after 15 minsby DELFIA method. It is filed as cell-based.
Data set [14] is described as follows: Antiproliferative activity against human K562 cells measured after 48 hrs by WST1 assay. It is filed as functional, cell-based. As to conditions: K562, 48 h.
Data set [15] is described as follows: Cytotoxicity against porcine testicular cells assessed as cell death at 120 to 250 ug/ml. It is filed as toxicity, cell-based, Sus scrofa. As to conditions: pig.
Data set [16] can be described thus: Cytotoxicity against human HL-60(TB) cells measured after 48 hrs by SRB assay. It is filed as functional. As to conditions: HL-60, 48 h.
A short description of data set [17]: Cytotoxicity against human MOLT4 cells measured after 48 hrs by SRB assay. It is filed as functional. As to conditions: MOLT-4, 48 h.
A short description of data set [18]: Cytotoxicity against human HOP62 cells measured after 48 hrs by SRB assay. It is filed as functional. As to conditions: HOP-62, 48 h.
A short description of data set [19]: Antiproliferative activity against human MCF7 cells measured after 48 hrs by SRB assay. It is filed as functional, cell-based. As to conditions: MCF7, 48 h.
Data set [20] is described as follows: Cytotoxicity against human […] cells measured after 48 hrs by SRB assay. It is filed as functional. As to conditions: RXF 393, 48 h.
A short description of data set [21]: Cytotoxicity against human UO31 cells measured after 48 hrs by SRB assay. It is filed as functional. As to conditions: UO-31, 48 h.
Data set [22] in a line: Cytotoxicity against human U251 cells measured after 48 hrs by SRB assay. As to conditions: U-251, 48 h. It is filed as functional.
The target in data set [23] is T2, Tyrosine-protein phosphatase non-receptor type 11 (Homo sapiens, UniProt Q06124).
T2 sequence (Q06124 whole entry): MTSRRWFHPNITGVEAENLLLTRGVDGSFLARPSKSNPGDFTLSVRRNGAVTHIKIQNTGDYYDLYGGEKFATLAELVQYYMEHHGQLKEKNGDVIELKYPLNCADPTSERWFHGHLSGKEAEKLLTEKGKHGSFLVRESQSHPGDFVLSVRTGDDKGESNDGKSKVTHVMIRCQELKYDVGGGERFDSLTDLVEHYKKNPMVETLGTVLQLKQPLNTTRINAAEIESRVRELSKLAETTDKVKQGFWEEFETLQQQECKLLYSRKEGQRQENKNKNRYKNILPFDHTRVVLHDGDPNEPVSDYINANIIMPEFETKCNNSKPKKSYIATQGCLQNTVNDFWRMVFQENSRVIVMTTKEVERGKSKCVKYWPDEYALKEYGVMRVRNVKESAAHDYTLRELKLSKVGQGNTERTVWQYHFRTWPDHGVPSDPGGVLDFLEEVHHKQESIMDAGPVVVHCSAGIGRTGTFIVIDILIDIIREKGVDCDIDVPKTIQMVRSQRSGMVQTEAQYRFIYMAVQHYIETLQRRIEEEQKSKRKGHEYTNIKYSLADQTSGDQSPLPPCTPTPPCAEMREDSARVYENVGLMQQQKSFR
Description: Inhibition of human GST-tagged Shp2 (205 to 593 residues) expressed Escherichia coli DH5alpha assessed as inhibition of PTP activity using DiFMUP as substrate measured after 30 mins by fluorescence analysis

The target of data set [24] is Glycogen synthase kinase-3 beta (Homo sapiens, UniProt P49841). Put plainly: Inhibition of GSK-3beta (unknown origin) assessed as inhibition of phosphorylation using Ser/Thr 9 peptide as substrate by FRET-based Z-LYTE assay.
Sequence of Glycogen synthase kinase-3 beta (P49841 whole entry): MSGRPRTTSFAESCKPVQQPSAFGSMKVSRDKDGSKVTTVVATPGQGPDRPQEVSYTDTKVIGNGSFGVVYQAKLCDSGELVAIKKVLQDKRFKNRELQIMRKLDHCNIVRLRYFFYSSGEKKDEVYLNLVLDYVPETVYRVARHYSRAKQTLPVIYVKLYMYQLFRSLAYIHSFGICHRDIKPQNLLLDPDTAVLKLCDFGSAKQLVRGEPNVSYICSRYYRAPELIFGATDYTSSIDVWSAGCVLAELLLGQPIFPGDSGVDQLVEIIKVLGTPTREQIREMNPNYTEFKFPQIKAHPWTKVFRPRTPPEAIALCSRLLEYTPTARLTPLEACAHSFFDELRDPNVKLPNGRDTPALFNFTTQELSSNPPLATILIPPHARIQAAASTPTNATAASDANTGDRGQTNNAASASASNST

The source of these data is ChEMBL document CHEMBL3865806, “3-Hydrazinoindolin-2-one derivatives: Chemical classification and investigation of their targets as anticancer agents” (Eur J Med Chem, 2016).

For `O=C1Nc2ccc(OC(F)(F)F)cc2/C1=N/N=C1/C(=O)N(c2ccccc2)c2ccccc21`, the IC50 (as a rule, the point on the concentration scale where inhibition reaches its midpoint) came out at 7670 nM in [1] and 4800 nM in data set [2].

Take `Cc1ccc2c(c1)/C(=N/NC(=O)N/N=C1\C(=O)Nc3ccc(C)cc31)C(=O)N2`: in [3], half-maximal inhibition (IC50) required 16000 nM.

As for `O=C1Nc2ccc(Cl)cc2/C1=N/Nc1nc(-c2ccc3c(c2)OCO3)nc2ccccc12`, the IC50 in data set [4] was 1000 to 2400 nM.

As to `CSc1ccc(CC(=O)N/N=C2\C(=O)Nc3ccccc32)cc1`, the IC50 in [5] is greater than 20000 nM.

Take `O=C(N/N=C1\C(=O)Nc2ccc(Br)cc21)Nc1nc2ccccc2o1`: the IC50 in data set [6] was found to be 17900 nM; in [7], 15900 nM; in [8], 13700 nM.

Regarding `O=C(CN/N=C1\C(=O)Nc2ccccc21)Nc1nc2ccc(Cl)cc2s1`, the “growth inhibition (GI)” value in [9] worked out at 26.6%; in data set [10] it was 38.1%; in data set [12], 27.5%. Besides, the inhibition – broadly, the share of the control response that was lost under treatment – in data set [11] was 36.6%.

Turning to `Cc1[nH]c(/C=N/N=C2\C(=O)Nc3ccc(F)cc32)c(C)c1C(=O)NCCCCCCCC(=O)NO`, in the data set with HeLa, the inhibition came to 98%.

In data set [2], `COc1ccc(NC(=S)N/N=C2\C(=O)Nc3ccccc32)cc1` had an IC50 of 3300 nM.

For the molecule `O=C(Cc1ccc2c(c1)CCO2)N/N=C1\CNc2cc(C(=O)NCCCCN3CC[C@H](O)C3)cc(Br)c21`, the IC50 in data set [13] came out at 0.7 nM.

In the case of `Cc1nc(-c2ccccc2)ccc1C(=O)N/N=C1\C(=O)Nc2ccc(Br)cc21`, in [14], the midpoint of inhibition, the IC50, lay at 25000 nM.

As to `CN1CCN(CC(=O)N/N=C2\C(=O)Nc3ccc4ccccc4c32)CC1`, in data set [15], the Activity is reported as 100%.

With `O=C1/C(=N\NC(=S)Nc2ccccc2)c2cc([N+](=O)[O-])ccc2N1CN1CCCCC1`, the values for the GI50 in [16], in [17] and in data set [18] were 501 nM, 661 nM and less than 10 nM, respectively.

For the molecule `Nc1c(C(=O)N/N=C2\C(=O)Nc3ccc([N+](=O)[O-])cc32)cnn1C(=O)c1ccc(-c2nc3ccccc3s2)cc1`, it took 10 nM to reach half-maximal inhibition in [19] (IC50).

Consider `O=C(CSc1nc2ccccc2c(=O)n1-c1ccccc1)N/N=C1\C(=O)Nc2ccc(F)cc21`, for which the GI50 (in general, the concentration that inhibits growth by half) was 1660 nM in data set [20], 209 nM in [21] and 1700 nM in data set [22].

In [4], `O=C1Nc2ccc(F)cc2/C1=N/Nc1nc(-c2ccccc2)nc2ccccc12` showed an IC50 of 1000 to 2400 nM.

With `O=C(Cc1ccc2c(c1)CCO2)N/N=C1\CNc2cc(C(=O)NCCN3CCOCC3)cc(Br)c21`, the IC50 in [13] amounted to 0.7 nM.

Take `O=C(Cc1ccc(O)c(F)c1)N/N=C1\C(=O)Nc2c(Cl)ccc(Cl)c21`: the IC50 in data set [5] turned out to be 9 nM.

Take `CS(=O)(=O)c1ccc(CC(=O)N/N=C2\C(=O)Nc3ccccc32)cc1`: the IC50 in data set [5] was greater than 20000 nM.

Take `O=C1Nc2ccc(S(=O)(=O)O)cc2/C1=N/Nc1ccccc1[N+](=O)[O-]`: in [23], the IC50 turned out to be 4990 nM.

Turning to `Cc1cc2c(cc1Br)NC(=O)/C2=N\NC(=O)c1ccccc1O`, in data set [24], the IC50 turned out to be 15800 nM.

Consider `O=C(Cc1ccc2c(c1)CCO2)N/N=C1\CNc2cc(C(=O)NCCCCN3CCC[C@H]3CO)cc(Br)c21`, for which the IC50 in data set [13] was 0.5 nM.

As for `O=C(Cc1ccc(O)c(Cl)c1)N/N=C1\C(=O)Nc2c(Cl)ccc(Cl)c21`, the IC50 in data set [5] came to 9 nM.

Take `O=c1[nH]cc(F)c(=O)[nH]1` [FLUOROURACIL]: the GI50 in data set [20] is 55000 nM; in data set [21] it was 6760 nM; in [22], 42700 nM.

Regarding `COc1ccc(-c2nc(N/N=C3\C(=O)Nc4ccccc43)c3ccccc3n2)cc1OC`, in [4], the IC50 is 1000 to 2400 nM.
